Values quoted from earlier work in paper PMC8674134, “Safety and efficacy of avapritinib in advanced systemic mastocytosis: the phase 1 EXPLORER trial” (Nature Medicine, 2021).

Experiments:
KIT D816V = tested on: KIT D816V; design: method as in PMID 16779792, PMID 15166033, PMID 19193436; details: cited from earlier work
[1] = tested on: advanced systemic mastocytosis (AdvSM); design: method as in PMID 32392175; details: post hoc exploratory analysis of pivotal phase 2 study; cited from earlier work
mast cell leukemia (MCL) = tested on: mast cell leukemia (MCL); design: method as in PMID 27355533; details: patients with MCL; 95% CI, 6–54%; cited from earlier work

Structure (SMILES)	Activity against KIT D816V (KIT D816V)	CR rate by IWG-MRT-ECNM criteria [1] [%]	Responses by IWG-MRT-ECNM criteria, patients [1] [%]	24-month OS (mast cell leukemia (MCL)) [%]
Cc1ccc(NC(=O)c2ccc(CN3CCN(C)CC3)cc2)cc1Nc1nccc(-c2cccnc2)n1 [Imatinib]	lacks activity	–	–	–
CO[C@@H]1[C@H](N(C)C(=O)c2ccccc2)C[C@H]2O[C@]1(C)n1c3ccccc3c3c4c(c5c6ccccc6n2c5c31)C(=O)NC4 [midostaurin]	–	2	28	26
